{"source": "the NIST ThermoML archive (doi:10.1016/j.jct.2004.08.006)", "settings": "298.15 K; 101.33 kPa; Crystal", "note": "± gives the expanded uncertainty stated by the source."}
{"smiles": "O=C(O)c1cnccn1", "note": "[2-pyrazinecarboxylic acid]", "values": [{"measurement": "mass density", "value": "1200 ± 200", "unit": "kg/m3"}]}
{"smiles": "NC(=O)c1cnccn1", "note": "[pyrazinecarboxamide]", "values": [{"measurement": "mass density", "value": "1100 ± 200", "unit": "kg/m3"}]}
